35 compounds from patent US20210238162A1, “CHEMICAL COMPOUNDS” (GlaxoSmithKline Intellectual Property Development Limited, priority 2015, published 2021) can be followed below.

Each structure is given as a SMILES string. Where only a bound is given, the exact number is not on record here.

One assay deals with T1, haematopoietic prostaglandin D synthase (H-PGDS) (Homo sapiens, UniProt O60760).
T1 construct: Full length human H-PGDS cDNA (Invitrogen Ultimate ORF IOH13026) was amplified by PCR; made in house; host or cells: E. coli BL21 (DE3*), vector pET22b+
T1 sequence (O60760 whole entry): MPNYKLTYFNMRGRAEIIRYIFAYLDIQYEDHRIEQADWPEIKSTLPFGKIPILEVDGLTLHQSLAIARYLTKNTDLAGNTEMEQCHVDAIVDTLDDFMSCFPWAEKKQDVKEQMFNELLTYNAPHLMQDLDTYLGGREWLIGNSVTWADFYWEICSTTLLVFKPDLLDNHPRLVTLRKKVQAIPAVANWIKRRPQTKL
Kind of assay: H-PGDS RapidFire High Throughput Mass Spectrometry Assay. It counts as biochemical. The following applies: H-PGDS RapidFire MS assay, mean pIC50; read-out: Potency Range (mean pIC50) (converted). In short, it runs like this:
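PGH2 (~10 μM burst) generated in situ from arachidonic acid by FLAG-tagged human COX-2 (Sf9-expressed), then converted to PGD2 by full-length human His-tagged H-PGDS from E. coli. PGD2 and PGF2α (substrate surrogate) quantified by RapidFire SPE-triple quadrupole MS; percent conversion calculated.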
Take `CC(C)(O)[C@H]1CC[C@H](NC(=O)c2cnc3cc(N)c(F)cc3c2)CC1` [Example 173, 7-Amino-6-fluoro-N-(trans-4-(2-hydroxypropan-2-yl)cyclohexyl)quinoline-3-carboxamide]: the IC50 is 100 to 1000 nM. Same read-out and setting: under `C[C@H]1CCN1c1cc2ncc(C(=O)N[C@H]3CC[C@H](C(C)(C)O)CC3)cc2cc1F` [Example 174, 6-Fluoro-N-(trans-4-(2-hydroxypropan-2-yl)cyclohexyl)-7-((S)-2-methylazetidin-1-yl)quinoline-3-carboxamide] stands 10 to 79.4 nM; under `C[C@@H]1CCN1c1cc2ncc(C(=O)N[C@H]3CC[C@H](C(C)(C)O)CC3)cc2cc1F` [Example 175, 6-Fluoro-N-(trans-4-(2-hydroxypropan-2-yl)cyclohexyl)-7-((R)-2-methylazetidin-1-yl)quinoline-3-carboxamide], 100 to 1000 nM. With `C[C@H]1CCN1c1cc2ncc(C(=O)N[C@H]3CCNC3=O)cc2cc1F` [Example 176, 6-Fluoro-7-((S)-2-methylazetidin-1-yl)-N—((S)-2-oxopyrrolidin-3-yl)quinoline-3-carboxamide], the IC50 was 10 to 79.4 nM. Consider `CC(C)(O)[C@H]1CC[C@H](NC(=O)c2cnc3cc(N4CC(F)(F)C4)c(F)cc3c2)CC1` [Example 177, 7-(3,3-Difluoroazetidin-1-yl)-6-fluoro-N-(trans-4-(2-hydroxypropan-2-yl)cyclohexyl)quinoline-3-carboxamide], for which the IC50 was 10 to 79.4 nM. Still for that read-out and setting: the same measure for `CCOc1cc2ncc(C(=O)N[C@H]3CC[C@H](C(C)(C)O)CC3)cc2cc1F` [Example 178, 7-Ethoxy-6-fluoro-N-(trans-4-(2-hydroxypropan-2-yl)cyclohexyl)quinoline-3-carboxamide]: 10 to 79.4 nM; for `CC(C)(O)[C@H]1CC[C@H](NC(=O)c2cnc3cc(C4CCC4)c(Cl)cc3c2)CC1` [Example 179, 6-Chloro-7-cyclobutyl-N-(trans-4-(2-hydroxypropan-yl)cyclohexyl)quinoline-3-carboxamide]: less than 10 nM. Turning to `C[C@]1(O)C[C@@H](NC(=O)c2cnc3cc(C4CCC4)c(Cl)cc3c2)C1` [Example 180, 6-Chloro-7-cyclobutyl-N-((1s,3s)-3-hydroxy-3-methylcyclobutyl)quinoline-3-carboxamide], the IC50 was 10 to 79.4 nM. The same measure, in the same setting: under `O=C(N[C@H]1CCNC1=O)c1cnc2cc(C3CCC3)c(Cl)cc2c1` [Example 181, (S)-6-Chloro-7-cyclobutyl-N-(2-oxopyrrolidin-3-yl)quinoline-3-carboxamide] stands less than 10 nM. On the same count and under the same terms, under `CC1CCN1c1cc2ncc(C(=O)N[C@H]3CCNC3=O)cc2cc1Cl` (stereo partly drawn) [Example 182, 6-Chloro-7-(2-methylazetidin-1-yl)-N—((S)-2-oxopyrrolidin-3-yl)quinoline-3-carboxamide] stands 10 to 79.4 nM; under `CC1CN(c2cc3ncc(C(=O)N[C@H]4CC[C@H](C(C)(C)O)CC4)cc3cc2F)C1` [Example 183, 6-Fluoro-N-(trans-4-(2-hydroxypropan-2-yl)cyclohexyl)-7-(3-methylazetidin-1-yl)quinoline-3-carboxamide], 10 to 79.4 nM; under `CC(C)(O)[C@H]1CC[C@H](NC(=O)c2cnc3cc(SC(F)F)c(F)cc3c2)CC1` [Example 184, 7-((Difluoromethyl)thio)-6-fluoro-N-(trans-4-(2-hydroxypropan-2-yl)cyclohexyl)quinoline-3-carboxamide], 10 to 79.4 nM. As for `CC(C)(O)[C@H]1CC[C@H](NC(=O)c2cnc3cc([S+]([O-])C(F)F)c(F)cc3c2)CC1` (stereo partly drawn) [Example 185, 7-((Difluoromethyl)sulfinyl)-6-fluoro-N-(trans-4-(2-hydroxypropan-2-yl)cyclohexyl)quinoline-3-carboxamide], the IC50 was 10 to 79.4 nM. In the case of `Cc1ccc2cc(C(=O)N[C@H]3CC[C@H](C(C)(C)O)CC3)cnc2c1` [Example 186, N-(trans-4-(2-Hydroxypropan-2-yl)cyclohexyl)-7-methylquinoline-3-carboxamide], the IC50 was 100 to 1000 nM. `C[C@H]1CCN1c1cc2ncc(C(=O)N[C@H]3CC[C@H](C(C)(C)O)CC3)cc2cc1Cl` [Example 187, 6-Chloro-N-(trans-4-(2-hydroxypropan-2-yl)cyclohexyl)-7-((S)-2-methylazetidin-1-yl)quinoline-3-carboxamide]: the IC50 was less than 10 nM. Consider `C[C@H]1CCN1c1cc2ncc(C(=O)N[C@H]3CCNC3=O)cc2cc1Cl` [Example 188, 6-Chloro-7-((S)-2-methylazetidin-1-yl)-N—((S)-2-oxopyrrolidin-3-yl)quinoline-3-carboxamide], for which the IC50 was 10 to 79.4 nM.

Take `COc1cccc2cc(C(=O)N[C@H]3CC[C@H](C(C)(C)O)CC3)cnc12` [Example 189, N-(trans-4-(2-Hydroxypropan-2-yl)cyclohexyl)-8-methoxyquinoline-3-carboxamide]: the IC50 is 100 to 1000 nM. Take `CC(C)(O)[C@H]1CC[C@H](NC(=O)c2cnc3cc(C(F)(F)F)ccc3c2)CC1` [Example 190, N-(trans-4-(2-Hydroxypropan-2-yl)cyclohexyl)-7-(trifluoromethyl)quinoline-3-carboxamide]: the IC50 is 100 to 1000 nM. The same measure, in the same setting: the same measure for `CC(C)(O)[C@H]1CC[C@H](NC(=O)c2cnc3cc(Br)ccc3c2)CC1` [Example 191, 7-Bromo-N-(trans-4-(2-hydroxypropan-2-yl)cyclohexyl)quinoline-3-carboxamide]: 10 to 79.4 nM. Still for that read-out and setting: under `CC(C)(O)[C@H]1CC[C@H](NC(=O)c2cnc3cc(C4CC4)ccc3c2)CC1` [Example 192, 7-Cyclopropyl-N-(trans-4-(2-hydroxypropan-2-yl)cyclohexyl)quinoline-3-carboxamide] stands less than 10 nM; under `CC(C)(O)[C@H]1CC[C@H](NC(=O)c2cnc3cc(N4CCC4)ccc3c2)CC1` [Example 194, 7-(Azetidin-1-yl)-N-(trans-4-(2-hydroxypropan-2-yl)cyclohexyl)quinoline-3-carboxamide], less than 10 nM; under `CC(C)(O)[C@H]1CC[C@H](NC(=O)c2cnc3cc4c(cc3c2)OCO4)CC1` [Example 195, N-(trans-4-(2-Hydroxypropan-2-yl)cyclohexyl)-[1,3]dioxolo[4,5-q]quinoline-7-carboxamide], 100 to 1000 nM.

Regarding `CN(C)c1ccc2cc(C(=O)N[C@H]3CC[C@H](C(C)(C)O)CC3)cnc2c1` [Example 196, 7-(Dimethylamino)-N-(trans-4-(2-hydroxypropan-2-yl)cyclohexyl)quinoline-3-carboxamide], the IC50 is less than 10 nM. As for `CC(C)(O)[C@H]1CC[C@H](NC(=O)c2cnc3cc(C4CCC4)ccc3c2)CC1` [Example 197, 7-Cyclobutyl-N-(trans-4-(2-hydroxypropan-2-yl)cyclohexyl)quinoline-3-carboxamide], the IC50 was 10 to 79.4 nM. In the case of `COc1ccc2cc(C(=O)N[C@H]3CC[C@H](C(C)(C)O)CC3)cnc2c1F` [Example 202, 8-Fluoro-N-(trans-4-(2-hydroxypropan-2-yl)cyclohexyl)-7-methoxyquinoline-3-carboxamide], the IC50 is 10 to 79.4 nM. Take `CC(C)(O)[C@H]1CC[C@H](NC(=O)c2cnc3cc(Cl)c(Cl)cc3c2)CC1` [Example 202A, 6,7-Dichloro-N-(trans-4-(2-hydroxypropan-2-VI)cyclohexyl)quinoline-3-carboxamide]: the IC50 was 10 to 79.4 nM. Regarding `CC(C)(O)[C@H]1CC[C@H](NC(=O)c2cnc3cc(Cl)ccc3c2)CC1` [Example 204, 7-Chloro-N-(trans-4-(2-hydroxypropan-2-yl)cyclohexyl)quinoline-3-carboxamide], the IC50 was 100 to 1000 nM.

As for `C[C@@H]1CNC(=O)[C@H]1NC(=O)c1cnc2cc(N3CC[C@@H]3C)c(Cl)cc2c1` [Example 205, 6-Chloro-N-((3S,4R)-4-methyl-2-oxopyrrolidin-3-yl)-7-((S)-2-methylazetidin-1-yl)quinoline-3-carboxamide], the IC50 was less than 10 nM. Regarding `C[C@@H]1CNC(=O)[C@H]1NC(=O)c1cnc2cc(N3CC(F)C3)c(F)cc2c1` [Example 206, 6-Fluoro-7-(3-fluoroazetidin-1-yl)-N-((3S,4R)-4-methyl-2-oxopyrrolidin-3-yl)quinoline-3-carboxamide], the IC50 is 10 to 79.4 nM. Take `CC1CN(c2cc3ncc(C(=O)N[C@@H]4C(=O)NC[C@H]4C)cc3cc2F)C1` [Example 207, 6-Fluoro-N-((3S,4R)-4-methyl-2-oxopyrrolidin-3-yl)-7-(3-methylazetidin-1-yl)quinoline-3-carboxamide]: the IC50 is 100 to 1000 nM.

`C[N+](C)([O-])[C@H]1CC[C@H](NC(=O)c2cnc3cc(OC(F)F)c(Cl)cc3c2)CC1` [Example 208, trans-4-(6-Chloro-7-(difluoromethoxy)quinoline-3-carboxamido)-N,N-dimethylcyclohexanamine oxide]: the IC50 was 10 to 79.4 nM. On the same count and under the same terms, the same measure for `CNc1cc2ncc(C(=O)N[C@H]3CC[C@H](C(C)(C)O)CC3)cc2cc1Cl` [Example 209]: less than 10 nM; for `O=C(N[C@H]1CC[C@H](C(=O)N2CCOCC2)CC1)c1cnc2cc(OC(F)F)c(Cl)cc2c1` [Example 210, 6-Chloro-7-(difluoromethoxy)-N-((trans)-4-(morpholine-4-carbonyl)cyclohexyl)quinoline-3-carboxamide]: less than 10 nM; for `CN1CCN(C(=O)[C@H]2CC[C@H](NC(=O)c3cnc4cc(OC(F)F)c(Cl)cc4c3)CC2)CC1` [Example 211, 6-Chloro-7-(difluoromethoxy)-N-((trans)-4-(4-methylpiperazine-1-carbonyl)cyclohexyl)quinoline-3-carboxamide]: 10 to 79.4 nM.

Still in this assay, the particulars now being: in at least one experimental run; read-out: H-PGDS pIC50 value (converted).
For `CC(C)(O)[C@H]1CC[C@H](NC(=O)c2cnc3cc(N4CC(F)(F)C4)c(F)cc3c2)CC1` [Example 177, 7-(3,3-Difluoroazetidin-1-yl)-6-fluoro-N-(trans-4-(2-hydroxypropan-2-yl)cyclohexyl)quinoline-3-carboxamide], the IC50 was 20 nM. In the case of `C[C@H]1CCN1c1cc2ncc(C(=O)N[C@H]3CC[C@H](C(C)(C)O)CC3)cc2cc1Cl` [Example 187, 6-Chloro-N-(trans-4-(2-hydroxypropan-2-yl)cyclohexyl)-7-((S)-2-methylazetidin-1-yl)quinoline-3-carboxamide], the IC50 was 6.31 nM. For the compound `CC(C)(O)[C@H]1CC[C@H](NC(=O)c2cnc3cc(F)ccc3c2)CC1` [Example 193, 7-Fluoro-N-(trans-4-(2-hydroxypropan-2-yl)cyclohexyl)quinoline-3-carboxamide], the IC50 is 2000 nM. As for `CC(C)(O)[C@H]1CC[C@H](NC(=O)c2cnc3cc(Cl)ccc3c2)CC1` [Example 204, 7-Chloro-N-(trans-4-(2-hydroxypropan-2-yl)cyclohexyl)quinoline-3-carboxamide], the IC50 is 158 nM.
